Experimental data published in patent publication US20180303809A1, “TREATMENT OF BURN PAIN BY TRPV1 MODULATORS” (Purdue Pharma L.P., priority 2013, published 2018).

Experiments:
Type in all cases: in vivo, rat
male Sprague-Dawley rats [1] = assay: Hind limb weight bearing (incapacitance meter, % WL) in thermal burn pain model; settings: for % WL (mean ± S.E.M.), percentage of weight borne on the burn-injured left hind paw: rat burn injury 55° C. 24 s
Description: (§1) Test Animals: Each experiment used male Sprague-Dawley rats weighing between 190-260 g at the time of thermal burn injury. The rats were housed two per cage, and were allowed to acclimate to their environment for at least six days before testing began. The rats had free access to food and water at all times, except during testing and prior to oral (PO) administration of a test compound, when food was removed about 16 hours before dosing. The rats were divided into treatment groups, and one of the following compounds was administered to each group at the dose and by the route of administration indicated in Tables 5.2A to 5.2C, 5.3A and 5.3B, and 5.4A and 5.4B: ketorolac (Sigma-Aldrich, St. Louis, Mo.), AMG 517 (selective TRPV1 antagonist described in Em. Doherty et al., “Novel vanilloid receptor-1 antagonists:2. Structure-activity relationships of 4-oxopyrimidines leading to the selection of a clinical candidate,” J Med Chem 50:3515-3527 (2007).) (Purdue Pharma L. P., Cranbury, N.J.), indomethacin (Alexis Biochemicals, Farmingdale, N.Y.), gabapentin (Bosche Scientific, New Brunswick, N.J.), or (S)-3-chloro-5-(1,2-dihydroxyethyl)-N-(5-(trifluoromethyl)pyridin-2-yl)-5′,6′-dihydro-[2,4′-bipyridine]-1′(2′H)-carboxamide (Compound 1). The control groups were administered the vehicle for the compound of formula (I). The volume of administration for PO treatment was 5 ml/kg, and was the same for all treatment groups. Volume of administration for intraperitoneal (i.p.) drug administration was 2 ml/kg.
(§2) To assess the actions of a compound of formula (I) for the treatment or prevention of burn pain, a model of thermal burn pain was used. A thermal burn injury was induced under isofluorane/O2 inhalation anesthesia. To assess mechanical hyperalgesia and weight bearing, a thermal injury was produced by immersing the left hind paw into water maintained at 55° C. for 24 seconds. The left hind paw of non-injured control animals was immersed in 22° C. water for 24 seconds. To assess thermal hyperalgesia, a thermal injury was produced by immersing the left hindpaw into water maintained at 50° C. for 48 seconds; the left hind-paw of non-injured control animals was immersed in 22° C. water for 48 seconds. The animals were assessed for response to noxious mechanical stimuli by determining PWT for mechanical hyperalgesia, weight bearing difference between the injured or non-injured side, or response to noxious thermal stimuli by determining PWL for thermal hyperalgesia, all as described below, prior to drug administration (baseline), then again at 1, 3 and 5 hours after induction of burn injury.
A commercially available incapacitance meter was used to determine the weight distribution on the two hind paws of the animal (Linton Incapacitance Tester (Linton Instrumentation, Norfolk, UK)). The weight bearing difference (WBD) between the injured and non-injured hindpaw was measured. The animal was placed in the testing chamber that allows the animal to stand normally, distributing its body weight on the hind limbs for the test. Each hind paw was positioned on a separate pressure sensitive pad, which independently measures the pressure applied by each limb. The device continuously collects data after either a force threshold has been exceeded, or the investigator depresses the start pad. Rats were allowed to acclimate when placed on the apparatus, and when they were stationary, the force exerted was then continuously monitored for 3 s. The endpoint was the amount of pressure applied to each limb over time. Three readings were taken for each rat at each time point, and the average used for data analysis. WBD was expressed as “% WL”, i.e. the percentage of weight borne on the burn-injured left hind paw, using the following formula: […]
where WLP is the weight on the left hind paw and WRP is the weight on the right (untreated) hind paw. The 50% value of % WL corresponds to an equal weight distribution across both hind paws. […]

male Sprague-Dawley rats [2] = assay: Plantar test, thermal hyperalgesia (PWL) in thermal burn pain model; settings: for % Change from Baseline (mean ± S.E.M.) of Paw Withdrawal Latency / Paw Withdrawal Latency (sec) (mean ± S.E.M.): rat burn injury 50° C. 48 s
Description: as §1, §2
The plantar test was used to assess thermal hyperalgesia. For this test, hind paw withdrawal latencies (PWL) to a noxious thermal stimulus were determined using a plantar test apparatus (commercially available from Ugo Basile of Italy) following the technique described by K. Hargreaves et al., “A New and Sensitive Method for Measuring Thermal Nociception in Cutaneous Hyperalgesia,” Pain 32(1):77-88 (1988). The maximum exposure time was set at 32 seconds to avoid tissue damage and any directed paw withdrawal from the heat source is taken as the end point. Three latencies were determined at each time point and averaged.

male Sprague-Dawley rats [3] = assay: Paw pressure assay, mechanical hyperalgesia (PWT) in thermal burn pain model; settings: for % Decrease from Baseline (mean ± S.E.M.) of Paw Withdrawal Threshold / Paw Withdrawal Threshold (g) (mean ± S.E.M.): rat burn injury 55° C. 24 s
Description: as §1, §2
The paw pressure assay was used to assess mechanical hyperalgesia. For this assay, hind paw withdrawal thresholds (PWT) to a noxious mechanical stimulus were determined using an analgesimeter (Model 7200, commercially available from Ugo Basile of Italy) as described in C. Stein, “Unilateral Inflammation of the Hindpaw in Rats as a Model of Prolonged Noxious Stimulation: Alterations in Behavior and Nociceptive Thresholds,” Pharmacol. Biochem. and Behavior 31:451-455 (1988). The rat's paw was placed on a small platform, and weight was applied in a graded manner up to a maximum of 250 grams. The endpoint was taken as the weight at which the paw was completely withdrawn. PWT was determined once for each rat at each time point, wherein the affected (ipsilateral; same side as the injury) rear paw was tested. […] All drug treatment groups were compared to the vehicle control group (i.e. injured, administered only the vehicle).

[4] = 3 mg/kg PO, 1 h after administration
[5] = 3 mg/kg PO, 3 h after administration
[6] = 3 mg/kg PO, 5 h after administration
[7] = 3 mg/kg PO, baseline (prior to drug administration)
[8] = 10 mg/kg PO, 1 h after administration
[9] = 10 mg/kg PO, 3 h after administration
[10] = 10 mg/kg PO, 5 h after administration
[11] = 10 mg/kg PO, baseline (prior to drug administration)
[12] = 30 mg/kg PO, 1 h after administration
[13] = 30 mg/kg PO, 3 h after administration
[14] = 30 mg/kg PO, 5 h after administration
[15] = 30 mg/kg PO, baseline (prior to drug administration)

## O=C(Nc1ccc(C(F)(F)F)cn1)N1CC=C(c2ncc([C@H](O)CO)cc2Cl)CC1 [Compound 1, (S)-3-chloro-5-(1,2-dihydroxyethyl)-N-(5-(trifluoromethyl)pyridin-2-yl)-5′,6′-dihydro-[2,4′-bipyridine]-1′(2′H)-carboxamide]
Male Sprague-Dawley rats [1]; rat burn injury
  Effect on weight bearing: did not significantly affect weight bearing
Male Sprague-Dawley rats [1]; [4]
  % WL (mean ± S.E.M.), percentage of weight borne on the burn-injured left hind paw: 24.4 ± 4.44%
Male Sprague-Dawley rats [1]; [5]
  % WL (mean ± S.E.M.), percentage of weight borne on the burn-injured left hind paw: 42.0 ± 4.51%
Male Sprague-Dawley rats [1]; [6]
  % WL (mean ± S.E.M.), percentage of weight borne on the burn-injured left hind paw: 49.5 ± 3.60%
Male Sprague-Dawley rats [1]; [7]
  % WL (mean ± S.E.M.), percentage of weight borne on the burn-injured left hind paw: 50.6 ± 0.62%
Male Sprague-Dawley rats [1]; [8]
  % WL (mean ± S.E.M.), percentage of weight borne on the burn-injured left hind paw: 37.6 ± 2.54%
Male Sprague-Dawley rats [1]; [9]
  % WL (mean ± S.E.M.), percentage of weight borne on the burn-injured left hind paw: 47.3 ± 1.92%
Male Sprague-Dawley rats [1]; [10]
  % WL (mean ± S.E.M.), percentage of weight borne on the burn-injured left hind paw: 49.0 ± 2.15%
Male Sprague-Dawley rats [1]; [11]
  % WL (mean ± S.E.M.), percentage of weight borne on the burn-injured left hind paw: 50.6 ± 0.71%
Male Sprague-Dawley rats [1]; [12]
  % WL (mean ± S.E.M.), percentage of weight borne on the burn-injured left hind paw: 31.4 ± 3.92%
Male Sprague-Dawley rats [1]; [13]
  % WL (mean ± S.E.M.), percentage of weight borne on the burn-injured left hind paw: 50.3 ± 2.07%
Male Sprague-Dawley rats [1]; [14]
  % WL (mean ± S.E.M.), percentage of weight borne on the burn-injured left hind paw: 55.6 ± 3.03%
Male Sprague-Dawley rats [1]; [15]
  % WL (mean ± S.E.M.), percentage of weight borne on the burn-injured left hind paw: 50.3 ± 0.53%
Male Sprague-Dawley rats [2]; rat burn injury
  Effect on thermal hyperalgesia: did not significantly affect thermal hyperalgesia
Male Sprague-Dawley rats [2]; [4]
  % Change from Baseline (mean ± S.E.M.) of Paw Withdrawal Latency: −45.8 ± 14.53%
  Paw Withdrawal Latency (sec) (mean ± S.E.M.): 8.1 ± 0.77 s
Male Sprague-Dawley rats [2]; [5]
  % Change from Baseline (mean ± S.E.M.) of Paw Withdrawal Latency: −34.4 ± 7.57%
  Paw Withdrawal Latency (sec) (mean ± S.E.M.): 9.2 ± 0.99 s
Male Sprague-Dawley rats [2]; [6]
  % Change from Baseline (mean ± S.E.M.) of Paw Withdrawal Latency: −35.7 ± 15.81%
  Paw Withdrawal Latency (sec) (mean ± S.E.M.): 9.9 ± 0.70 s
Male Sprague-Dawley rats [2]; [7]
  Paw Withdrawal Latency (sec) (mean ± S.E.M.): 14.5 ± 1.22 s
Male Sprague-Dawley rats [2]; [8]
  % Change from Baseline (mean ± S.E.M.) of Paw Withdrawal Latency: −36.0 ± 11.15%
  Paw Withdrawal Latency (sec) (mean ± S.E.M.): 8.9 ± 1.08 s
Male Sprague-Dawley rats [2]; [9]
  % Change from Baseline (mean ± S.E.M.) of Paw Withdrawal Latency: −19.7 ± 10.24%
  Paw Withdrawal Latency (sec) (mean ± S.E.M.): 12.0 ± 0.66 s
Male Sprague-Dawley rats [2]; [10]
  % Change from Baseline (mean ± S.E.M.) of Paw Withdrawal Latency: −22.5 ± 9.23%
  Paw Withdrawal Latency (sec) (mean ± S.E.M.): 11.3 ± 0.98 s
Male Sprague-Dawley rats [2]; [11]
  Paw Withdrawal Latency (sec) (mean ± S.E.M.): 14.4 ± 1.17 s
Male Sprague-Dawley rats [2]; [12]
  % Change from Baseline (mean ± S.E.M.) of Paw Withdrawal Latency: −34.3 ± 6.08%
  Paw Withdrawal Latency (sec) (mean ± S.E.M.): 7.8 ± 0.73 s
Male Sprague-Dawley rats [2]; [13]
  % Change from Baseline (mean ± S.E.M.) of Paw Withdrawal Latency: −15.7 ± 10.29%
  Paw Withdrawal Latency (sec) (mean ± S.E.M.): 11.5 ± 1.04 s
Male Sprague-Dawley rats [2]; [14]
  % Change from Baseline (mean ± S.E.M.) of Paw Withdrawal Latency: −16.6 ± 8.94%
  Paw Withdrawal Latency (sec) (mean ± S.E.M.): 11.2 ± 0.81 s
Male Sprague-Dawley rats [2]; [15]
  Paw Withdrawal Latency (sec) (mean ± S.E.M.): 13.7 ± 0.92 s
Male Sprague-Dawley rats [3]; [4]
  % Decrease from Baseline (mean ± S.E.M.) of Paw Withdrawal Threshold: 59 ± 1.8%
  Paw Withdrawal Threshold (g) (mean ± S.E.M.): 97 ± 4.5 g
Male Sprague-Dawley rats [3]; [5]
  % Decrease from Baseline (mean ± S.E.M.) of Paw Withdrawal Threshold: 63.2 ± 2.1^ %
  Paw Withdrawal Threshold (g) (mean ± S.E.M.): 88 ± 5.6 g
Male Sprague-Dawley rats [3]; [6]
  % Decrease from Baseline (mean ± S.E.M.) of Paw Withdrawal Threshold: 63 ± 1.4%
  Paw Withdrawal Threshold (g) (mean ± S.E.M.): 90 ± 4.0 g
Male Sprague-Dawley rats [3]; [7]
  Paw Withdrawal Threshold (g) (mean ± S.E.M.): 240 ± 8.4 g
Male Sprague-Dawley rats [3]; [8]
  % Decrease from Baseline (mean ± S.E.M.) of Paw Withdrawal Threshold: 55 ± 3.2%
  Paw Withdrawal Threshold (g) (mean ± S.E.M.): 108 ± 73^ g
Male Sprague-Dawley rats [3]; [9]
  % Decrease from Baseline (mean ± S.E.M.) of Paw Withdrawal Threshold: 60 ± 3.2%
  Paw Withdrawal Threshold (g) (mean ± S.E.M.): 97 ± 8.5 g
Male Sprague-Dawley rats [3]; [10]
  % Decrease from Baseline (mean ± S.E.M.) of Paw Withdrawal Threshold: 66 ± 2.4%
  Paw Withdrawal Threshold (g) (mean ± S.E.M.): 83 ± 5.4 g
Male Sprague-Dawley rats [3]; [11]
  Paw Withdrawal Threshold (g) (mean ± S.E.M.): 243 ± 6.5 g
Male Sprague-Dawley rats [3]; [12]
  % Decrease from Baseline (mean ± S.E.M.) of Paw Withdrawal Threshold: 37 ± 2.5 %
  Paw Withdrawal Threshold (g) (mean ± S.E.M.): 153 ± 4.4 g
Male Sprague-Dawley rats [3]; [13]
  % Decrease from Baseline (mean ± S.E.M.) of Paw Withdrawal Threshold: 42 ± 4.5 %
  Paw Withdrawal Threshold (g) (mean ± S.E.M.): 141 ± 9.0 g
Male Sprague-Dawley rats [3]; [14]
  % Decrease from Baseline (mean ± S.E.M.) of Paw Withdrawal Threshold: 61 ± 2.0^ %
  Paw Withdrawal Threshold (g) (mean ± S.E.M.): 95 ± 4.5 g
Male Sprague-Dawley rats [3]; [15]
  Paw Withdrawal Threshold (g) (mean ± S.E.M.): 244 ± 6.0^ g
Male Sprague-Dawley rats [3]; rat, 30 mg/kg
  Effect on mechanical hyperalgesia associated with the burn injury: significantly reduced mechanical hyperalgesia
